Test results reported in ChEMBL document CHEMBL1148042, “Novel bioactive diterpenoids from Aframomum aulacocarpos” (1994).
≈ marks a conversion by molar mass, not a printed value.

What was measured:
Type in all cases: functional
[1] = system: Rhizomucor miehei; test: Antifungal activity against Mucor miehei by plate diffusion assay
[2] = system: Bacillus subtilis; test: Antibacterial activity against Bacillus subtilis ATCC 6633 by serial dilution assay
[3] = system: L1210; test: Cytotoxicity against mouse L1210 cells; conditions: read-out: ED50 (the source's name)

COC(=O)/C(=C/C[C@H]1[C@@]2(CC[C@H]3C(C)(C)[C@@H](O)CC[C@@]31C)CO2)C1CO1 (stereo partly drawn) [AULACOCARPINE A] gave an MIC [1] of 50 µg/mL (≈ 137 µM) and an MIC [2] of 25 µg/mL (≈ 68.6 µM).
Molecule COC(=O)/C(=C/C[C@H]1[C@]2(CO2)C[C@@H](O)[C@H]2C(C)(C)[C@@H](O)CC[C@@]21C)C1CO1 (stereo partly drawn) [AULACOCARPIN B] has an MIC [1] of 50 µg/mL (≈ 131 µM), an MIC [2] of 25 µg/mL (≈ 65.7 µM) and an EC50 [3] of 25 µg/mL (≈ 65.7 µM).
CC1(C)[C@@H](O)CC[C@]2(C)C3=C(CC[C@@H]12)CO[C@@H](C1=CCOC1=O)C3 [AULACOCARPINOLIDE] was tested, and the MIC [1] was 50 µg/mL (≈ 150 µM), the MIC [2] was 25 µg/mL (≈ 75.2 µM) and the EC50 [3] was 12.5 µg/mL (≈ 37.6 µM).
